According to patent publication US20200093835A1, “METHODS OF TREATING VESTIBULAR SCHWANNOMA” (Massachusetts Eye and Ear Infirmary, priority 2017, published 2020):

Experiments:
[1] = tested on: HEI-193 human schwannoma cells; assay: Metabolic activity (MTT) assay, HEI-193; format: cell-based; conditions: for HEI-193 cell metabolic activity: 72 h; for metabolic activity of HEI-193 cells: preliminary testing, clinically reasonable concentrations
Protocol: (§1) HEI-193 cells are derived from a patient with sporadic bilateral vestibular schwannomas and a history of meningioma; these cells express a splice variant of the merlin protein (encoded by the NF2 gene), but neither typical isoform^52. HEI-193 cells were cultured in DMEM/F12-containing medium with 10% fetal bovine serum and 1% penicillin and streptomycin mix as described above. Immortalized NF2-null and NF2-expressing arachnoid AC-CRISPR cell lines derived from primary human autopsy specimens were obtained via generous gift from Dr. Vijaya Ramesh at Massachusetts General Hospital^40. NF2-null and NF2-expressing arachnoid cells were cultured in DMEM with 15% fetal bovine serum and 1% penicillin and streptomycin mix. All cell lines were maintained in an incubator at 37 degrees Celsius with 5% carbon dioxide and treated with drugs 24-36 hours after seeding at between 15,000-25,000 cells per well in 24-well plates. Phase contrast photos of healthy and drug-treated cultures were taken at 10× magnification on an IncuCyte S3 instrument (Essen Bio).
Cultures were incubated with drug-containing medium or 0.1% DMSO vehicle for 72 hours and then processed for downstream applications.
The metabolic activity of primary VS and HEI-193 cells was assessed using the colorimetric 3-(4,5-dimethylthiazol-2-yl)-2,5-diphenyltetrazolium bromide (MTT) assay (Life Technologies). After 72-hour incubation of cells in a 24-well plate with medium containing drug or vehicle, culture medium was replaced with 362 μL of colorless DMEM and 38 μL of 12 mM MTT in 3-6 random wells. Cells were incubated for an additional 4 hours. The resulting formazan crystals were dissolved in 380 μL of a solution of 100 mg/mL sodium dodecyl sulfate in 0.01 M HCl and incubated for another 4 hours. Optical density (OD) at 570 nm of each well was detected using a spectrophotometer. The average OD value of cells exposed to vehicle (0.1% DMSO) was set to 100% and used to normalize OD values of cells treated with drugs; metabolic activity was then reported as percent change. Statistical testing was performed on raw OD values (see Statistical Methods).

[2] = tested on: AC-CRISPR NF2(−/−) and AC-CRISPR NF2(+/+) human arachnoid cells; assay: Metabolic viability, arachnoid cells versus schwannoma cells; format: cell-based
Protocol: as §1
(§2) The metabolic activity of primary VS and HEI-193 cells was assessed using the colorimetric 3-(4,5-dimethylthiazol-2-yl)-2,5-diphenyltetrazolium bromide (MTT) assay (Life Technologies). […] Optical density (OD) at 570 nm of each well was detected using a spectrophotometer. […]

[3] = tested on: unresectable meningioma; conditions: cited from earlier work
[4] = tested on: HEI-193 cells; assay: Flow cytometry, annexin V/propidium iodide staining; format: cell-based, human; conditions: 35 μM, 72 h, versus vehicle
Protocol: Apoptotic cell death was assessed using an Annexin V/propidium iodide (PI) staining kit (Miltenyi Biotec). […] Adherent cells were collected by trypsinization, and non-adherent (floating) cells were collected from culture medium. Cells were centrifuged, washed in PBS, and incubated in 1× annexin binding buffer, annexin V-fluorescein isothiocyanate (FITC), and propidium iodide (PI) according to the manufacturer's recommendations. Stained cells were immediately analyzed using a Cytomics FC500 flow cytometer. Data were analyzed using CXP Analysis software (version 2.2, Coulter).

[5] = in vivo; cited from earlier work
[6] = tested on: primary human Schwann cells; assay: Metabolic activity (MTT) assay, primary Schwann cells; format: cell-based; conditions: p=0.23
[7] = tested on: HEI-193 cells; assay: Caspase 3/7 activation by live-cell imaging, HEI-193; format: cell-based, human; conditions: 70 μM and 35 μM, over 100 h, versus vehicle
[8] = tested on: HEI-193 cells; assay: Proliferation assay (BrdU incorporation), HEI-193; format: cell-based, human; conditions: 35 μM, 72 h; p=0.0007
Protocol: 5′bromo-2′-deoxyuridine (BrdU) was added to label proliferating cells in culture 2 hours before fixation in 4% formalin (paraformaldehyde). Cell membranes were permeabilized with 10 minutes of incubation in 1% Triton X-100 and nuclear membranes with 20 minutes in 2N hydrochloric acid (HCl). Cells were blocked in 5% normal horse serum (NHS) and 1% Triton X-100 and incubated with a primary antibody against BrdU (# OBT0030G, AbD Serotec) overnight, followed by incubation with fluorescent anti-rat immunoglobulin G (AlexaFluor, Life Technologies).

[9] = tested on: HEI-193 cells; assay: Phalloidin staining of f-actin, HEI-193; format: cell-based, human; conditions: 35 μM, 72 hours
[10] = tested on: primary human VS cells; assay: Proliferation assay (BrdU incorporation), primary VS cells
[11] = tested on: primary human VS cells; assay: Metabolic activity (MTT) assay, primary VS cells; format: cell-based
Protocol: Written informed consent was obtained from all subjects prior to inclusion in this study and all procedures were conducted in accordance with the Helsinki Declaration of 1975. Detailed methods for human surgical specimen collection, processing, and culture are previously published^38. VS specimens were harvested from patients undergoing surgical tumor resection, and GAN specimens from healthy patients undergoing benign parotidectomy or neck dissection surgery, during which the GAN is routinely sacrificed. Patients who had received radiation therapy prior to surgery were excluded.
Briefly, after surgical resection, VS or GAN tissue was immediately placed in saline solution and transported to the laboratory on ice. Specimens were rinsed with Hank's Balanced Salt Solution (HBSS, ThermoFisher Scientific), dissected to remove burned tissue and blood vessels, and separated for RNA preservation (RNALater, ThermoFisher Scientific) or primary cell culture. […]
as §2

[12] = tested on: primary human VS cells; assay: Cytotoxicity assay (IncuCyte Cytotox Reagent), primary VS cells; format: cell-based; conditions: 35 μM, 72 hours, live cell fluorescence microscopy
Protocol: Cytotoxicity and cell confluence were measured using live-cell, time-lapse phase contrast and fluorescence imaging acquired at 10× by an IncuCyte S3 instrument (Essen Bioscience). Cytotoxicity was measured by incorporation of IncuCyte Cytotox Reagent (Essen Bioscience), applied according to manufacturer's instructions; the reagent fluoresces when it binds DNA after compromise of membrane integrity. Nine images were acquired per well every 2 hours for 72 hours, and cytotoxicity at each time point is reported as number of fluorescent objects per well, after thresholding to avoid the inclusion of small cellular debris. Phase object confluence was measured using time-lapse phase contrast imaging acquired at 10× by the same instrument, analyzing 9 images per well every 2 hours for 72 hours, and is reported as percent confluence per square millimeter.

[13] = tested on: HEI-193 cells; assay: Cell confluence and phase contrast imaging (IncuCyte), HEI-193; format: cell-based, human
Protocol: as §1, with “All cell lines were maintained in an incubator at 37 degrees Celsius with 5% carbon dioxide and treated with drugs 24-36 hours after seeding at between 15,000-25,000 cells per well in 24-well plates. Phase contrast photos of healthy and drug-treated cultures were taken at 10× magnification on an IncuCyte S3 instrument (Essen Bio).” left out
Cytotoxicity and cell confluence were measured using live-cell, time-lapse phase contrast and fluorescence imaging acquired at 10× by an IncuCyte S3 instrument (Essen Bioscience). Cytotoxicity was measured by incorporation of IncuCyte Cytotox Reagent (Essen Bioscience), applied according to manufacturer's instructions; the reagent fluoresces when it binds DNA after compromise of membrane integrity. […] Phase object confluence was measured using time-lapse phase contrast imaging acquired at 10× by the same instrument, analyzing 9 images per well every 2 hours for 72 hours, and is reported as percent confluence per square millimeter.

[14] = tested on: HEI-193 cells; assay: ELISA for progesterone in conditioned cell culture medium; format: cell-based, human; conditions: 35 μM versus 0.1% DMSO vehicle; p=0.08
Protocol: Cell-conditioned medium was collected from mifepristone-treated and untreated HEI-193 cells after 72-hour incubation with the drug. Enzyme-linked immunosorbent assay (ELISA) was performed on each sample in triplicate to assess the quantity of progesterone in cell-conditioned medium, according to the manufacturer's protocol (Enzo Life Science, # ADI-900-011). Data were analyzed using GraphPad Prism 7 software licensed through Harvard Medical School.

[15] = tested on: HEI-193 cells; assay: TUNEL assay, HEI-193; format: cell-based, human; conditions: 72 h, versus vehicle
[16] = tested on: HEI-193 cells; assay: Cell cycle analysis; format: cell-based, human; conditions: 72 h treatment
Protocol: Harvested HEI-193 cells were washed in PBS and fixed in cold 70% ethanol at −20° C. for 18-72 h. Before staining with propidium iodide (PI), cells were centrifuged and washed again in cold PBS. 2×10^6 or fewer cells were incubated with 500 μl staining solution [0.1% Triton X-100 (Sigma), 2 mg/ml RNase A (Qiagen), and 1 μg/ml PI (Miltenyi Biotec) in PBS] for 15 minutes at 37° C. In order to exclude DNAse activity, RNase A was boiled for 5 minutes and cooled down before its addition to staining solution. Cells were analyzed on a Cytomics FC500 flow cytometer using CXP Analysis software (version 2.2, Coulter).

[17] = tested on: primary VS cells; assay: Cell death (TUNEL) assay, primary VS cells; format: cell-based, human; conditions: 25 μM, 72 h

In the case of `C[C@H]1C[C@@H]2[C@H]([C@@H](O)C[C@@]3(C)[C@H]2CC[C@]3(O)C(=O)CO)[C@@]2(C)C=CC(=O)C=C12` [methylprednisolone], the “HEI-193 cell metabolic activity” value ([1]; 27 μM) is reported as “no significant effect” and the “metabolic activity of HEI-193 cells” value [1] is reported as “no effect”.

In the case of `CC#C[C@]1(O)CC[C@H]2[C@@H]3CCC4=CC(=O)CCC4=C3[C@@H](c3ccc(N(C)C)cc3)C[C@@]21C` [mifepristone, 11β-(4-dimethylaminophenyl)-17β-hydroxy-17α-(1-propynyl)-estra-4,9-dien-3-one], the “metabolic viability, schwannoma cells compared with arachnoid cells” value [2] is listed as “reduces the metabolic viability of schwannoma cells more significantly”, the outcome versus placebo ([3]; double-blind, randomized Phase III trial of 164 patients) is listed as “no difference between treatment and placebo” and the “patients with minor responses resulting in clinical benefit” value ([3]; long-term clinical trial, unresectable meningioma) is listed as “eight of 28”. For the same compound, the “early apoptotic cells (annexin V/propidium iodide)” value [4] was “slight but not significant increase”, the blood-brain barrier crossing [5] was “able to cross the blood-brain barrier” and the “metabolic viability of primary human Schwann cells” value [6] was “does not adversely affect”. The “caspase 3/7 activity” value [7] was “slight but not significant elevation”, the “metabolic viability of HEI-193 cells” value ([1]; MTT, 72 h in culture, vehicle vs 35 μM p=0.006) was “decreases with increasing concentration” and the “percentage of BrdU+ HEI-193 cells” value [8] was “significantly declines”. The “f-actin morphology (phalloidin staining)” value [9] was “crumpled f-actin morphology”, the “BrdU incorporation in primary VS cells” value ([10]; 35 μM, p=0.0002) was “significant decline” and the “metabolic activity of primary VS cells” value ([11]; MTT, ten tumors, vehicle vs 35 μM p=0.002) was “declines with increasing concentrations”. The “cytotoxicity of VS cells” value [12] was “significant increase”, the phase object confluence ([13]; 35 μM, 72 hours) was “remains constant” and the “cell shape under treatment” value ([13]; phase contrast, FIG. 2C) was “long, thin, spindle-like shape”. For the same compound, the “progesterone in culture medium” value [14] was “increase in progesterone in culture medium”, the “number of TUNEL positive cells” value [15] was “no statistically significant difference” and the “phase of cell cycle” value [16] was “no significant differences”.

In the case of `O=C(O)[C@@H](S)[C@@H](S)C(=O)O` [succimer], the “HEI-193 cell metabolic activity” value ([1]; 25, 50, and 100 μM) is reported as “no significant effect” and the “metabolic activity of HEI-193 cells” value [1] is reported as “no effect”.

In the case of `Nc1ncnc2c1ncn2[C@@H]1O[C@H](COP(=O)(O)O)[C@@H](O)[C@H]1O` [ADENOSINE MONOPHOSPHATE, ADENOSINE, adenosine monophosphate], the “HEI-193 cell metabolic activity” value ([1]; 5, 10, and 15 μM) is reported as “no significant effect” and the “metabolic activity of HEI-193 cells” value [1] is reported as “no effect”.

In the case of gold sodium thiomalate, the “HEI-193 cell metabolic activity” value ([1]; 25, 50, 100, and 300 μM) is reported as “significant effect on HEI-193 cell metabolic activity, but only at clinically unreasonable concentrations” and the “metabolic activity of HEI-193 cells” value [1] is reported as “no effect”.

With `C[C@]12C=CC(=O)C=C1CC[C@@H]1[C@@H]2[C@@H](O)C[C@@]2(C)[C@H]1CC[C@]2(O)C(=O)CO` [prednisolone] the “HEI-193 cell metabolic activity” value ([1]; 25 μM) was “no significant effect”, the “proliferation of primary VS cells” value ([10]; 25 μM, 72 h) was “no effect” and the “metabolic activity of primary VS cells” value ([11]; 25 μM, 72 h) was “modest effect”. For the same compound, the “elevation in cell death among primary VS cells versus vehicle” value [17] was 15.85%.
